# Peptide text beside a SMILES is read from it.
# Tested on: male runners
# Experiment: Dynavision D2 MODE B reaction test with cognitive load (hits and time per hit in 60 s)
# Type: in vivo, human
# Design: Mode B Avg Δ, Mean Difference: unit not given here
# Settings: for Mode B Avg Δ (time per hit), group mean / Mode B Hits Δ, group mean: Post-Pre
# Procedure: The testing protocol is depicted in FIG. 1. Data collection occurred on four separate occasions. Each session required participants to perform a 60-min run at 75% of their previously measured VO2max. Following this run, all participants performed a run at 90% of their VO2max until volitional exhaustion. All participants performed their first trial (DHY) without any rehydration. During this session the total weight lost during the trial was determined. The fluid loss that occurred during this session was then used to determine the participant's swear rate (L·hr^−1). To continue in the study, participant's sweat rate was or exceeded 1.3 L·hr^−1. During the next three trails participants were provided 250 ml of fluid every 15 minutes in equal amounts. During one of the trials participants consumed only a flavored sports drink (ELECT only), while during the other trials participants consumed the alanine-glutamine supplement (Sustamine™) mixed in the same flavored sports drink at either a low (LD: 300 mg per 500 ml) or high (HD: 1 g per 500 ml) dose. Measurement of upper body reaction time was performed on the Dynavision D2 Visuomotor Training Device (D2; Dynavision International LLC, West Chester, Ohio). The D2 is a light training reaction device, developed to train sensory motor integration through the visual system. It consists of a board (4 foot×4 foot) that can be raised or lowered relative to the height of the operator. It contains 64 target buttons arranged into five concentric circles surrounding a center screen that can be illuminated to serve as a stimulus for the participant. Participants were required to assume a comfortable athletic stance and stand at a distance from the board where they could easily reach all of the lights. The board height was adjusted so the LCD screen was located just below eye level. A total of three different reaction tests were conducted. Participants were instructed to fixate their gaze on the LCD screen in the middle of the board and to keep their focus there for the entirety of the experiment. The third assessment (MODE B) was similar to the previous measure in that participants were required to react to a visual stimulus as it changed positions on the board. However, the difference between the two assessments was that the stimulus remained for 1 s before it changed to another random location, and each participant was required to verbally recite a five digit number that was presented on the center screen of the D2 during each assessment. The appearance of the digits placed an additional demand on the information processing resources of the participant. The participant was instructed to successfully identify and strike each stimulus before it changed position and score as many strikes as possible within 60 s. The number of successful hits was recorded for each participant. Additionally, to make inferences on true effects of the different trials on reaction performance, an analysis based on the magnitude of differences, calculated from 90% confidence intervals, as previously described by Batterham and Hopkins (2005), was used in this study. Differences in Post-Pre performance (Δresponse) between trials were analyzed via a published spreadsheet (Hopkins 2007), with the smallest non-trivial change set at 20% of the grand standard deviation (Batterham and Hopkins 2005). All data are expressed as a mean effect±SD, with percent chances of a beneficial, trivial or negative outcome. Qualitative inferences, based on quantitative chances were assessed as: <1% almost certainly not, 1-5% very unlikely, 5-25% unlikely, 25-75% possibly, 75-95% likely, 95-99% very likely and >99% almost certainly (Hopkins 2002).
smiles,measurement,setting,value
C[C@H](N)C(=O)N[C@@H](CCC(N)=O)C(=O)O [L-Alanyl-L-Glutamine] (H-Ala-Gln-OH),"Mode B Avg Δ, Interpretation",Dehydration vs High Dose,likely negative
same,"Mode B Avg Δ, Mean Difference",Dehydration vs High Dose,−0.023
same,"Mode B Avg Δ, Percent Negative",Dehydration vs High Dose,82.12%
same,"Mode B Avg Δ, Percent Positive",Dehydration vs High Dose,1.37%
same,"Mode B Avg Δ, Percent Trivial",Dehydration vs High Dose,16.50%
same,"Mode B Hits Δ, Interpretation",Dehydration vs High Dose,Unclear
same,"Mode B Hits Δ, Mean Difference",Dehydration vs High Dose,0.67
same,"Mode B Hits Δ, Percent Negative",Dehydration vs High Dose,20.22%
same,"Mode B Hits Δ, Percent Positive",Dehydration vs High Dose,31.57%
same,"Mode B Hits Δ, Percent Trivial",Dehydration vs High Dose,48.20%
same,"Mode B Avg Δ, Interpretation",Dehydration vs Low Dose,Unclear
same,"Mode B Avg Δ, Mean Difference",Dehydration vs Low Dose,−0.0075
same,"Mode B Avg Δ, Percent Negative",Dehydration vs Low Dose,41.89%
same,"Mode B Avg Δ, Percent Positive",Dehydration vs Low Dose,8.13%
same,"Mode B Avg Δ, Percent Trivial",Dehydration vs Low Dose,49.99%
same,"Mode B Hits Δ, Interpretation",Dehydration vs Low Dose,Unclear
same,"Mode B Hits Δ, Mean Difference",Dehydration vs Low Dose,−1.1
same,"Mode B Hits Δ, Percent Negative",Dehydration vs Low Dose,31.06%
same,"Mode B Hits Δ, Percent Positive",Dehydration vs Low Dose,10.62%
same,"Mode B Hits Δ, Percent Trivial",Dehydration vs Low Dose,58.32%
same,"Mode B Avg Δ, Interpretation",Gatorade vs High Dose,No
same,"Mode B Hits Δ, Interpretation",Gatorade vs High Dose,Unclear
same,"Mode B Hits Δ, Mean Difference",Gatorade vs High Dose,−0.5
same,"Mode B Hits Δ, Percent Negative",Gatorade vs High Dose,33.43%
same,"Mode B Hits Δ, Percent Positive",Gatorade vs High Dose,25.96%
same,"Mode B Hits Δ, Percent Trivial",Gatorade vs High Dose,40.61%
same,"Mode B Avg Δ (time per hit), group mean",High Dose (1 g per 500 ml),0
same,"Mode B Hits Δ, group mean",High Dose (1 g per 500 ml),2.75
same,"Mode B Avg Δ (time per hit), group mean",Low Dose (300 mg per 500 ml),−0.0158
same,"Mode B Hits Δ, group mean",Low Dose (300 mg per 500 ml),4.5
same,"Mode B Avg Δ, Interpretation",Low Dose vs Gatorade,possibly negative
same,"Mode B Avg Δ, Mean Difference",Low Dose vs Gatorade,−0.016
same,"Mode B Avg Δ, Percent Negative",Low Dose vs Gatorade,70.44%
same,"Mode B Avg Δ, Percent Positive",Low Dose vs Gatorade,1.16%
same,"Mode B Avg Δ, Percent Trivial",Low Dose vs Gatorade,28.39%
same,"Mode B Hits Δ, Interpretation",Low Dose vs Gatorade,Unclear
same,"Mode B Hits Δ, Mean Difference",Low Dose vs Gatorade,2.3
same,"Mode B Hits Δ, Percent Negative",Low Dose vs Gatorade,25.04%
same,"Mode B Hits Δ, Percent Positive",Low Dose vs Gatorade,48.77%
same,"Mode B Hits Δ, Percent Trivial",Low Dose vs Gatorade,26.19%
same,"Mode B Avg Δ, Interpretation",Low Dose vs High Dose,Unclear
same,"Mode B Avg Δ, Mean Difference",Low Dose vs High Dose,−0.016
same,"Mode B Avg Δ, Percent Negative",Low Dose vs High Dose,64.75%
same,"Mode B Avg Δ, Percent Positive",Low Dose vs High Dose,5.03%
same,"Mode B Avg Δ, Percent Trivial",Low Dose vs High Dose,30.22%
same,"Mode B Hits Δ, Interpretation",Low Dose vs High Dose,Unclear
same,"Mode B Hits Δ, Mean Difference",Low Dose vs High Dose,1.8
same,"Mode B Hits Δ, Percent Negative",Low Dose vs High Dose,7.59%
same,"Mode B Hits Δ, Percent Positive",Low Dose vs High Dose,40.19%
same,"Mode B Hits Δ, Percent Trivial",Low Dose vs High Dose,52.22%
same,successful hits in MODE B and time per successful hits,between trials,No differences were noted between trials

# — US10369185B2, “Methods and compositions for enhancement of ability to concentrate” (KYOWA HAKKO BIO CO., LTD., priority 2014, dated 2019)
